Experimental data reported in ChEMBL document CHEMBL5096203, “Discovery of 6-[(3S,4S)-4-Amino-3-methyl-2-oxa-8-azaspiro[4.5]decan-8-yl]-3-(2,3-dichlorophenyl)-2-methyl-3,4-dihydropyrimidin-4-one (IACS-15414), a Potent and Orally Bioavailable SHP2 Inhibitor” (J Med Chem, 2021).

How the values were obtained:
[1] = Permeability of compound across apical to basolateral side in dog wild type MDCK-MDR1 cells; format: ADME, cell-based, Canis lupus familiaris; details: read-out: permeability
[2] = Half life in Sprague-Dawley rat 0.3 mg/kg, iv measured at 0.083 to 24 hrs by LC-MS/MS analysis; format: ADME, organism-based; details: in vivo, time 0.083-24 hrs
[3] = Dissociation constant, pKa of the compound; format: physicochemical
[4] = Volume of distribution at steady state in Sprague-Dawley rat 3 mg/kg, po or 3 mg/kg, iv measured at 0.083 to 24 hrs by LC-MS/MS analysis; format: ADME, organism-based; details: in vivo, time 0.083-24 hrs
[5] = Permeability of compound across apical to basolateral side in dog wild type MDCK cells; format: ADME, cell-based, Canis lupus familiaris; details: read-out: permeability
[6] = Permeability of compound across basolateral to apical side in dog wild type MDCK-MDR1 cells; format: ADME, cell-based, Canis lupus familiaris; details: read-out: permeability
[7] = Oral bioavailability in Sprague-Dawley rat 3 mg/kg measured at 0.083 to 24 hrs by LC-MS/MS analysis; format: ADME, organism-based; details: in vivo, time 0.083-24 hrs
[8] = Clearance in Sprague-Dawley rat 0.3 mg/kg, iv measured at 0.083 to 24 hrs by LC-MS/MS analysis; format: ADME, organism-based; details: in vivo, time 0.083-24 hrs
[9] = Permeability of compound across basolateral to apical side in dog wild type MDCK cells; format: ADME, cell-based, Canis lupus familiaris; details: read-out: permeability
[10] = AUC (0 to 24 hrs) in Sprague-Dawley rat 0.3 mg/kg, iv measured at 0.083 to 24 hrs by LC-MS/MS analysis; format: ADME, organism-based; design: time lower 0.083 hrs, dose 0.3 mg/kg, time upper 24 hrs, route iv; details: in vivo
[11] = Half life in iv dosed Sprague-Dawley rat measured at 0.083 to 24 hrs by LC-MS/MS analysis; format: ADME, organism-based; details: in vivo, time 0.083-24 hrs
[12] = Clearance in iv dosed Sprague-Dawley rat measured at 0.083 to 24 hrs by LC-MS/MS analysis; format: ADME, organism-based; details: in vivo, time 0.083-24 hrs
[13] = Oral bioavailability in Cynomolgus monkey measured at 0.083 to 24 hrs by LC-MS/MS analysis; format: ADME, organism-based, Macaca fascicularis; details: in vivo, time 0.083-24 hrs
[14] = Volume of distribution at steady state in Cynomolgus monkey measured at 0.083 to 24 hrs by LC-MS/MS analysis; format: ADME, Macaca fascicularis; details: in vivo, time 0.083-24 hrs, read-out: Vdss
[15] = Permeability of compound across apical to basolateral side in dog MDCK-MDR1 cells; format: ADME, cell-based, Canis lupus familiaris
[16] = Oral bioavailability in […] Sprague-Dawley rat measured at 0.083 to 24 hrs by LC-MS/MS analysis; format: ADME, organism-based; details: in vivo, time 0.083-24 hrs
[17] = Oral bioavailability in CD-1 mouse measured at 0.083 to 24 hrs by LC-MS/MS analysis; format: ADME, organism-based; details: in vivo, time 0.083-24 hrs
[18] = Half life in iv dosed Beagle dog measured at 0.083 to 24 hrs by LC-MS/MS analysis; format: ADME, organism-based, Canis lupus familiaris; details: in vivo, time 0.083-24 hrs
[19] = Half life in iv dosed CD-1 mouse measured at 0.083 to 24 hrs by LC-MS/MS analysis; format: ADME, organism-based; details: in vivo, time 0.083-24 hrs
[20] = Permeability of compound across basolateral to apical side in dog MDCK-MDR1 cells; format: ADME, cell-based, Canis lupus familiaris
[21] = Metabolic stability in mouse microsome assessed as intrinsic clearance incubated for 45 mins in presence of NADPH regenerating system by LC-MS/MS analysis; format: ADME; details: microsomes, read-out: CLH
[22] = Volume of distribution at steady state in CD-1 mouse measured at 0.083 to 24 hrs by LC-MS/MS analysis; format: ADME; details: in vivo, time 0.083-24 hrs, read-out: Vdss
[23] = Clearance in iv dosed Beagle dog measured at 0.083 to 24 hrs by LC-MS/MS analysis; format: ADME, organism-based, Canis lupus familiaris; details: in vivo, time 0.083-24 hrs
[24] = Oral bioavailability in Beagle dog measured at 0.083 to 24 hrs by LC-MS/MS analysis; format: ADME, organism-based, Canis lupus familiaris; details: in vivo, time 0.083-24 hrs
[25] = Metabolic stability in human microsome assessed as intrinsic clearance incubated for 45 mins in presence of NADPH regenerating system by LC-MS/MS analysis; format: ADME; details: microsomes
[26] = Metabolic stability in rat microsome assessed as intrinsic clearance incubated for 45 mins in presence of NADPH regenerating system by LC-MS/MS analysis; format: ADME; details: microsomes
[27] = Volume of distribution at steady state in Beagle dog measured at 0.083 to 24 hrs by LC-MS/MS analysis; format: ADME, Canis lupus familiaris; details: in vivo, time 0.083-24 hrs, read-out: Vdss
[28] = Clearance in iv dosed CD-1 mouse measured at 0.083 to 24 hrs by LC-MS/MS analysis; format: ADME, organism-based; details: in vivo, time 0.083-24 hrs
[29] = Metabolic stability in Beagle dog microsome assessed as intrinsic clearance incubated for 45 mins in presence of NADPH regenerating system by LC-MS/MS analysis; format: ADME, Canis lupus familiaris; details: microsomes, read-out: CLH
[30] = Metabolic stability in monkey microsome assessed as intrinsic clearance incubated for 45 mins in presence of NADPH regenerating system by LC-MS/MS analysis; format: ADME, Macaca mulatta; details: rhesus monkey, microsomes, read-out: CLH
[31] = Volume of distribution at steady state in Sprague-Dawley rat measured at 0.083 to 24 hrs by LC-MS/MS analysis; format: ADME; details: in vivo, time 0.083-24 hrs, read-out: Vdss
[32] = Clearance in iv dosed Cynomolgus monkey measured at 0.083 to 24 hrs by LC-MS/MS analysis; format: ADME, organism-based, Macaca fascicularis; details: in vivo, time 0.083-24 hrs
[33] = Half life in iv dosed Cynomolgus monkey measured at 0.083 to 24 hrs by LC-MS/MS analysis; format: ADME, organism-based, Macaca fascicularis; details: in vivo, time 0.083-24 hrs
[34] = Oral bioavailability in Sprague-Dawley rat 0.3 mg/kg measured at 0.083 to 24 hrs by LC-MS/MS analysis; format: ADME, organism-based; details: in vivo, time 0.083-24 hrs
Homo sapiens [35] = species on record: Homo sapiens; experiment: Binding affinity to human SHP2 E76K mutant assessed as change in enthalpy by isothermal titration calorimetry assay
Homo sapiens [36] = species on record: Homo sapiens; experiment: Binding affinity to human SHP2 E76K mutant assessed as change in entropy by isothermal titration calorimetry assay
[37] = Oral bioavailability in Sprague-Dawley rat 3 mg/kg, iv measured at 0.083 to 24 hrs by LC-MS/MS analysis; format: ADME, organism-based; details: in vivo, time 0.083-24 hrs
[38] = Volume of distribution at steady state in Sprague-Dawley rat 3 mg/kg, po or 1 mg/kg, iv measured at 0.083 to 24 hrs by LC-MS/MS analysis; format: ADME, organism-based; details: in vivo, time 0.083-24 hrs
[39] = Half life in Sprague-Dawley rat 1 mg/kg, iv measured at 0.083 to 24 hrs by LC-MS/MS analysis; format: ADME, organism-based; details: in vivo, time 0.083-24 hrs
[40] = Clearance in Sprague-Dawley rat 1 mg/kg, iv measured at 0.083 to 24 hrs by LC-MS/MS analysis; format: ADME, organism-based; details: in vivo, time 0.083-24 hrs
[41] = AUC (0 to 24 hrs) in Sprague-Dawley rat 1 mg/kg, iv measured at 0.083 to 24 hrs by LC-MS/MS analysis; format: ADME, organism-based; design: dose 1 mg/kg, time 0.083-24 hrs, route iv; details: in vivo

CNc1nccc(-c2n[nH]c3nc(N4CCC(C)(N)CC4)cnc23)c1Cl
Papp A→B [1]: 2.1 ×10⁻⁶ cm/s
half-life [2]: 4.8 h
pKa [3]: 10.4
Vdss [4]: 12.9 L/kg
Papp A→B [5]: 4.2 ×10⁻⁶ cm/s
Papp B→A [6]: 28 ×10⁻⁶ cm/s
bioavailability [7]: 38%
clearance [8]: 37 mL/min/kg
Papp B→A [9]: 8 ×10⁻⁶ cm/s
AUC(0-t) [10]: 0.314 µM·h

C[C@@H]1OCC2(CCN(c3cnc4c(-c5cccc(Cl)c5Cl)n[nH]c4n3)CC2)[C@@H]1N
Papp A→B [1]: 6.4 ×10⁻⁶ cm/s
Papp A→B [5]: 9 ×10⁻⁶ cm/s
Papp B→A [6]: 10.2 ×10⁻⁶ cm/s
Papp B→A [9]: 10 ×10⁻⁶ cm/s

Cc1nc(N2CCC3(CC2)CO[C@@H](C)[C@H]3N)c(Cl)c(=O)n1-c1cccc(Cl)c1Cl
half-life [11]: 1.8 h
clearance [12]: 41.3 mL/min/kg
bioavailability [13]: 53%
Vd [14]: 4.5 L/kg
Papp A→B [15]: 18 ×10⁻⁶ cm/s
bioavailability [16]: 38%
bioavailability [17]: 119%
half-life [18]: 5.5 h
half-life [19]: 6 h
Papp B→A [20]: 19 ×10⁻⁶ cm/s
CLint scaled [21]: 37 mL/min/kg
Vd [22]: 4.6 L/kg
clearance [23]: 9.2 mL/min/kg
bioavailability [24]: 88%
CLint scaled ([25]; read-out: CLH): 10 mL/min/kg
CLint scaled [26]: 72 mL/min/kg
Vd [27]: 3.5 L/kg
clearance [28]: 11.6 mL/min/kg
CLint scaled [29]: 529 mL/min/kg
CLint scaled [30]: 74 mL/min/kg
Vd [31]: 3.7 L/kg
clearance [32]: 8.3 mL/min/kg
half-life [33]: 7.3 h

CCNc1nccc(-c2n[nH]c3nc(N4CCC5(CC4)CO[C@@H](C)[C@H]5N)cnc23)c1Cl
Papp A→B [1]: 8.6 ×10⁻⁶ cm/s
pKa [3]: 9.3
Papp A→B [5]: 12.4 ×10⁻⁶ cm/s
Papp B→A [6]: 40.7 ×10⁻⁶ cm/s
Papp B→A [9]: 25 ×10⁻⁶ cm/s

Cc1nc(N2CCC3(CC2)CO[C@@H](C)[C@H]3N)cc(=O)n1-c1cccc(Cl)c1Cl (stereo in doubt)
half-life [11]: 5.9 h
clearance [12]: 5.8 mL/min/kg
bioavailability [13]: 89%
Vd [14]: 3.4 L/kg
Papp A→B [15]: 12 ×10⁻⁶ cm/s
bioavailability [16]: 80%
bioavailability [17]: 99%
half-life [18]: 8.6 h
half-life [19]: 3.5 h
Papp B→A [20]: 32 ×10⁻⁶ cm/s
CLint scaled [21]: 28 mL/min/kg
Vd [22]: 2.6 L/kg
clearance [23]: 4.2 mL/min/kg
bioavailability [24]: 106%
CLint scaled ([25]; read-out: CL): 0.7 mL/min/kg
CLint scaled [26]: 0.8 mL/min/kg
Vd [27]: 2.9 L/kg
clearance [28]: 9.2 mL/min/kg
CLint scaled [29]: 17 mL/min/kg
CLint scaled [30]: 21 mL/min/kg
Vd [31]: 2.5 L/kg
clearance [32]: 4.2 mL/min/kg
half-life [33]: 9.4 h

N[C@@H]1CCCC12CCN(c1nc3[nH]nc(-c4cccc(Cl)c4Cl)c3c(=O)[nH]1)CC2
Papp A→B [1]: 0.3 ×10⁻⁶ cm/s
half-life [2]: 2.7 h
Vdss [4]: 2.2 L/kg
Papp A→B [5]: 0.27 ×10⁻⁶ cm/s
Papp B→A [6]: 9.5 ×10⁻⁶ cm/s
bioavailability [34]: 3%
clearance [8]: 12 mL/min/kg
Papp B→A [9]: 3.64 ×10⁻⁶ cm/s
CLint scaled ([25]; read-out: CL): 2 mL/min/kg
CLint scaled [26]: 26 mL/min/kg

CC1(N)CCN(c2cnc3c(-c4cccc(Cl)c4Cl)n[nH]c3n2)CC1
Papp A→B [1]: 6 ×10⁻⁶ cm/s
deltaH (Homo sapiens [35]): -3.67 kcal/mol
pKa [3]: 10.4
-TdeltaS (Homo sapiens [36]): -5.44 kcal/mol
Papp A→B [5]: 6 ×10⁻⁶ cm/s
Papp B→A [6]: 8.5 ×10⁻⁶ cm/s
Papp B→A [9]: 6.8 ×10⁻⁶ cm/s
bioavailability [37]: 70%
Vdss [38]: 21 L/kg
half-life [39]: 13 h
CL [40]: 70%
AUC(0-t) [41]: 2 µM·h
